Holding throughout (type): ADME, organism-based
Data set [1] relates to Homo sapiens. Kind of data set: (§1) Evaluation of pharmacokinetic parameters for Clarithromycin following multiple oral doses of Clarithromycin tablets. Particulars: in vivo, po, dosed compound id 21, dosed compound name CLARITHROMYCIN, regimen Every 12h; for Excretion: tissue Urine. Set-up: dose 250 mg, dose 500 mg, dose 1000 mg, route oral.
A short description of data set [2]: as §1. Details: dose 250 mg, dose 500 mg, dose 1000 mg, route oral. As to conditions: human, in vivo, dosed compound id 21, dosed compound name CLARITHROMYCIN, route oral.
Data set [3] relates to Homo sapiens. Kind of data set: (§2) Tmax for Clarithromycin evaluated after a single oral dose of 500 mg Clarithromycin tablets to fed and fasted subjects. As to conditions: in vivo, po, dietary status Fasting, dosed compound id 21, dosed compound name CLARITHROMYCIN, regimen Single dose, tissue Plasma.
The nature of data set [4]: as §2. Particulars: human, in vivo, dietary status Fed, dosed compound id 21, dosed compound name CLARITHROMYCIN, regimen Single dose, tissue Plasma.
In data set [5] the test system is Homo sapiens. Kind of data set: Evaluation of pharmacokinetic parameters for 14 OH-Clarithromycin following multiple oral doses of Clarithromycin tablets. Set-up: dose 250 mg, dose 500 mg, dose 1000 mg, route oral. As to conditions: in vivo, dosed compound id 21, dosed compound name CLARITHROMYCIN, tissue Plasma.

Each structure is given as a SMILES string. “And” between values parts separate entries of the source, which are not always exact repeats. Equal values may be shown once.

In general, Tmax refers to the time at which the peak concentration occurs. What is called half-life is the time needed for the level to fall by half in the phase considered. A low value points to rapid decline. As for `CC[C@H]1OC(=O)[C@H](C)[C@@H](O[C@H]2C[C@@](C)(OC)[C@@H](O)[C@H](C)O2)[C@H](C)[C@@H](O[C@@H]2O[C@H](C)C[C@H](N(C)C)[C@H]2O)[C@](C)(OC)C[C@@H](C)C(=O)[C@H](C)[C@@H](O)[C@]1(C)O` [CLARITHROMYCIN], the Excretion in the data set on Homo sapiens [1] (at 250 mg) turned out to be 20%; in the data set with Homo sapiens [1] (at 500 mg) it was 30%. In the data set with Homo sapiens [1] (dose 250 mg, tissue Plasma), this molecule gave a t1/2 of 3 to 4 h. Also, the Cmax ss with Homo sapiens [1] (gender male and female, tissue Plasma) is 2000 to 4000 ng/mL and 5000 to 10000 ng/mL; in the data set on Homo sapiens [1] (sampling time1 3 days, tissue Plasma), 1000 to 2000 ng/mL and 3000 to 4000 ng/mL. Also, the dose excreted in data set [2] (po, at 250 mg, regimen Every 12h, tissue Urine, read-out: Excretion) came out at 40%. Also, the Tmax in data set [2] (dose 500 mg, gender male and female, regimen Every 24h, tissue Plasma) is 5 to 6 h; in the data set on Homo sapiens [3] it was 2 h; in data set [4], 2.5 h. Further, the half-life in data set [2] (dose 500 mg, regimen Every 12h, tissue Plasma) fell in the range of 5 to 7 h.
For the molecule `CO[C@]1(C)C[C@@H](C)C(=O)[C@H](C)[C@@H](O)[C@](C)(O)[C@@H](C(C)O)OC(=O)[C@H](C)[C@@H](O[C@H]2C[C@@](C)(OC)[C@@H](O)[C@H](C)O2)[C@H](C)[C@H]1O[C@@H]1O[C@H](C)C[C@H](N(C)C)[C@H]1O` (stereo not given in full), the t1/2 was 5 to 6 h in the data set with Homo sapiens [5] (dose 250 mg, regimen Every 12h, route oral) and 7 to 9 h in the data set on Homo sapiens [5] (dose 500 mg, regimen Every 12h, route oral). The Tmax with Homo sapiens [5] (dose 500 mg, gender male and female, regimen Every 24h, route oral) was determined as 6 h. The Cmax ss in the data set with Homo sapiens [5] (gender male and female, regimen Every 24h) is 800 ng/mL; in the data set on Homo sapiens [5] (regimen Every 12h) it was 600 ng/mL and 1000 ng/mL.

These data come from ChEMBL document CHEMBL3832024, “DailyMed|setid=d9db2fd3-a668-4d37-9082-18f6ceb8c3cb | CLARITHROMYCIN - clarithromycin tablet, film coated, extended release|Dispensing Solutions, Inc”.
